Assay results as given in patent US12655116B2, “Substituted isophthalic acid diamides” (Bayer Aktiengesellschaft, priority 2020, dated 2026).

Tests used:
LOLRI [1] = test: Pre-emergence herbicidal action against LOLRI; format: in vivo, Lolium rigidum; conditions: Lolium rigidum, 504 h, 80 g/ha
Summary of the method: (§1)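 Sandy loam pots, seeds covered with soil, then surface-treated with WP or EC formulations at 600–800 l/ha water plus 0.2% wetting agent. Greenhouse, 3 weeks. Percent damage vs untreated controls.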

POLCO [2] = test: Pre-emergence herbicidal action against POLCO; format: in vivo, Polygonum convolvulus; conditions: Fallopia convolvulus, 504 h, dosage 80 g/ha
Summary of the method: as §1

STEME [3] = test: Post-emergence herbicidal action against STEME; format: in vivo, Stellaria media
Summary of the method: (§2)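 Visual % rating (0% = as untreated, 100% = dead) ~3 wk after spraying one-leaf-stage plants grown in sandy loam; WP/EC in water at 600–800 l/ha, 0.2% wetting agent.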

STEME [4] = test: Pre-emergence herbicidal action against STEME; format: in vivo, Stellaria media
Summary of the method: as §1

ECHCG [5] = test: Post-emergence herbicidal action against ECHCG; format: in vivo, Echinochloa crus-galli
Summary of the method: as §2

ABUTH [6] = test: Pre-emergence herbicidal action against ABUTH; format: in vivo, Abutilon theophrasti
Summary of the method: as §1

HORMU [7] = test: Pre-emergence herbicidal action against HORMU; format: in vivo, Hordeum murinum; conditions: Hordeum murinum, 504 h; 80 g/ha, pre-emergence
Summary of the method: as §1

MATIN [8] = test: Pre-emergence herbicidal action against MATIN; format: in vivo, Matricaria inodora
Summary of the method: as §1

POLCO [9] = test: Post-emergence herbicidal action against POLCO; format: in vivo, Polygonum convolvulus; conditions: dosage 20 g/ha
Summary of the method: as §2

SETVI [10] = test: Pre-emergence herbicidal action against SETVI; format: in vivo, Setaria viridis
Summary of the method: as §1

AMARE [11] = test: Post-emergence herbicidal action against AMARE; format: in vivo, Amaranthus retroflexus; conditions: 20 g/ha, visual assessment about 3 weeks after treatment, 100% = plants have died, 0% = like control plants
Summary of the method: as §2

VERPE [12] = test: Post-emergence herbicidal action against VERPE; format: in vivo, Veronica persica; conditions: 20 g/ha
Summary of the method: as §2

MATIN [13] = test: Post-emergence herbicidal action against MATIN; format: in vivo, Matricaria inodora
Summary of the method: as §2

AVEFA [14] = test: Pre-emergence herbicidal action against AVEFA; format: in vivo, Avena fatua; conditions: Avena fatua, 504 h; 80 g/ha, pre-emergence
Summary of the method: as §1

DIGSA [15] = test: Post-emergence herbicidal action against DIGSA; format: in vivo, Digitaria sanguinalis
Summary of the method: as §2

PHBPU = test: Post-emergence herbicidal action against PHBPU; format: in vivo, Pharbitis purpurea; conditions: dosage 20 g/ha
Summary of the method: as §2

ECHCG [16] = test: Pre-emergence herbicidal action against ECHCG; format: in vivo, Echinochloa crus-galli
Summary of the method: as §1

ABUTH [17] = test: Post-emergence herbicidal action against ABUTH; format: in vivo, Abutilon theophrasti; conditions: visual assessment about 3 weeks after treatment vs untreated controls
Summary of the method: as §2

VIOTR [18] = test: Pre-emergence herbicidal action against VIOTR; format: in vivo, Viola tricolor
Summary of the method: as §1

ALOMY [19] = test: Post-emergence herbicidal action against ALOMY; format: in vivo, Alopecurus myosuroides; conditions: dosage 20 g/ha, visual assessment about 3 weeks after treatment vs untreated controls
Summary of the method: as §2

VIOTR [20] = test: Post-emergence herbicidal action against VIOTR; format: in vivo, Viola tricolor
Summary of the method: as §2

DIGSA [21] = test: Pre-emergence herbicidal action against DIGSA; format: in vivo, Digitaria sanguinalis
Summary of the method: as §1

SETVI [22] = test: Post-emergence herbicidal action against SETVI; format: in vivo, Setaria viridis
Summary of the method: as §2

VERPE [23] = test: Pre-emergence herbicidal action against VERPE; format: in vivo, Veronica persica; conditions: dosage 80 g/ha
Summary of the method: as §1

ALOMY [24] = test: Pre-emergence herbicidal action against ALOMY; format: in vivo, Alopecurus myosuroides; conditions: 80 g/ha, pre-emergence, scored visually after 3 weeks vs untreated controls (100% = plants have died, 0% = like control plants)
Summary of the method: as §1

LOLRI [25] = test: Post-emergence herbicidal action against LOLRI; format: in vivo, Lolium rigidum; conditions: dosage 20 g/ha
Summary of the method: as §2

AMARE [26] = test: Pre-emergence herbicidal action against AMARE; format: in vivo, Amaranthus retroflexus
Summary of the method: as §1

AVEFA [27] = test: Post-emergence herbicidal action against AVEFA; format: in vivo, Avena fatua; conditions: 20 g/ha, visual assessment about 3 weeks after treatment, 100% = plants have died, 0% = like control plants
Summary of the method: as §2

HORMU [28] = test: Post-emergence herbicidal action against HORMU; format: in vivo, Hordeum murinum; conditions: dosage 20 g/ha
Summary of the method: as §2

[29] = Tripleurospermum inodorum, 504 h, dosage 20 g/ha
[30] = Setaria viridis, 504 h, dosage 20 g/ha
[31] = 80 g/ha, scored visually after 3 weeks vs untreated controls (100% = plants have died, 0% = like control plants)

CCNC(=O)c1c(C(F)(F)F)ccc(C(=O)Nc2nnnn2C)c1C [Example 1-26]
pest or weed control at 80 g/ha (LOLRI [1]): 80%
pest or weed control at 80 g/ha (POLCO [2]): 90%
pest or weed control at 20 g/ha (STEME [3]; Stellaria media, 504 h, 20 g/ha): 90%
pest or weed control at 5 g/ha (STEME [3]; Stellaria media, 504 h, dosage 5 g/ha): 90%
pest or weed control at 20 g/ha (STEME [4]; Stellaria media, 504 h, dosage 20 g/ha): 100%
pest or weed control at 80 g/ha (STEME [4]; Stellaria media, 504 h, dosage 80 g/ha): 100%
pest or weed control at 20 g/ha (ECHCG [5]; Echinochloa crus-galli, 504 h, dosage 20 g/ha): 80%
pest or weed control at 80 g/ha (ABUTH [6]; Abutilon theophrasti, 504 h, 80 g/ha, scored visually after 3 weeks vs untreated controls (100% = plants have died, 0% = like control plants)): 100%
pest or weed control at 20 g/ha (ABUTH [6]; Abutilon theophrasti, 504 h, dosage 20 g/ha, scored visually after 3 weeks vs untreated controls, 100% = plants have died, 0% = like control plants, read-out: Pre-emergence action against ABUTH (herbicidal activity in percent)): 100%
pest or weed control at 80 g/ha (HORMU [7]): 80%
pest or weed control at 20 g/ha (MATIN [8]; [29]): 100%
pest or weed control at 80 g/ha (MATIN [8]; Tripleurospermum inodorum, 504 h, dosage 80 g/ha): 100%
pest or weed control at 20 g/ha (POLCO [9]; Fallopia convolvulus, 504 h): 90%
pest or weed control at 20 g/ha (SETVI [10]; [30]): 80%
pest or weed control at 80 g/ha (SETVI [10]; Setaria viridis, 504 h, dosage 80 g/ha): 100%
pest or weed control at 20 g/ha (AMARE [11]; Amaranthus retroflexus, 504 h): 100%
pest or weed control at 20 g/ha (VERPE [12]; Veronica persica, 504 h): 80%
pest or weed control at 5 g/ha (MATIN [13]; Tripleurospermum inodorum, 504 h, dosage 5 g/ha): 90%
pest or weed control at 20 g/ha (MATIN [13]; [29]): 90%
pest or weed control at 80 g/ha (AVEFA [14]): 100%
pest or weed control at 5 g/ha (DIGSA [15]; Digitaria sanguinalis, 504 h, 5 g/ha): 90%
pest or weed control at 20 g/ha (DIGSA [15]; Digitaria sanguinalis, 504 h, 20 g/ha): 100%
pest or weed control at 20 g/ha (PHBPU; Ipomoea purpurea, 504 h): 80%
pest or weed control at 20 g/ha (ECHCG [16]; Echinochloa crus-galli, 504 h, 20 g/ha): 80%
pest or weed control at 80 g/ha (ECHCG [16]; Echinochloa crus-galli, 504 h, 80 g/ha): 100%
pest or weed control at 5 g/ha (ABUTH [17]; Abutilon theophrasti, 504 h, dosage 5 g/ha): 90%
pest or weed control at 20 g/ha (ABUTH [17]; Abutilon theophrasti, 504 h, dosage 20 g/ha): 100%
pest or weed control at 20 g/ha (VIOTR [18]; Viola tricolor, 504 h, dosage 20 g/ha): 90%
pest or weed control at 80 g/ha (VIOTR [18]; Viola tricolor, 504 h, dosage 80 g/ha): 100%
pest or weed control at 20 g/ha (ALOMY [19]; Alopecurus myosuroides, 504 h): 90%
pest or weed control at 5 g/ha (VIOTR [20]; Viola tricolor, 504 h, 5 g/ha): 100%
pest or weed control at 20 g/ha (VIOTR [20]; Viola tricolor, 504 h, 20 g/ha): 100%
pest or weed control at 20 g/ha (DIGSA [21]; Digitaria sanguinalis, 504 h, dosage 20 g/ha): 100%
pest or weed control at 80 g/ha (DIGSA [21]; Digitaria sanguinalis, 504 h, dosage 80 g/ha): 100%
pest or weed control at 5 g/ha (SETVI [22]; Setaria viridis, 504 h, dosage 5 g/ha): 100%
pest or weed control at 20 g/ha (SETVI [22]; [30]): 100%
pest or weed control at 80 g/ha (VERPE [23]; Veronica persica, 504 h): 80%
pest or weed control at 80 g/ha (ALOMY [24]; Alopecurus myosuroides, 504 h): 100%
pest or weed control at 20 g/ha (LOLRI [25]; Lolium rigidum, 504 h): 80%
pest or weed control at 20 g/ha (AMARE [26]; Amaranthus retroflexus, 504 h, 20 g/ha, scored visually after 3 weeks vs untreated controls, 100% = plants have died, 0% = like control plants): 100%
pest or weed control at 80 g/ha (AMARE [26]; Amaranthus retroflexus, 504 h, 80 g/ha, scored visually after 3 weeks vs untreated controls, 100% = plants have died, 0% = like control plants): 100%

CNC(=O)c1c(C(F)F)ccc(C(=O)Nc2nnco2)c1Cl [Example 5-122]
Post-emergence action at 20 g/ha against AVEFA in % (AVEFA [27]): 80%
Post-emergence action against STEME in % (STEME [3]; 20 g/ha): 100%
Post-emergence action against STEME in % (STEME [3]; dosage 5 g/ha): 90%
Pre-emergence action against STEME in % (STEME [4]; dosage 20 g/ha): 90%
Pre-emergence action against STEME in % (STEME [4]; dosage 80 g/ha): 90%
Post-emergence action against ECHCG in % (ECHCG [5]; dosage 5 g/ha): 90%
Post-emergence action against ECHCG in % (ECHCG [5]; dosage 20 g/ha): 90%
Pre-emergence action against ABUTH (herbicidal activity) (ABUTH [6]; [31]): 100%
Pre-emergence action against ABUTH (herbicidal activity in percent) (ABUTH [6]; dosage 20 g/ha, scored visually after 3 weeks vs untreated controls, 100% = plants have died, 0% = like control plants): 90%
Pre-emergence action against MATIN in % (MATIN [8]; dosage 80 g/ha): 90%
Post-emergence action against POLCO in % (POLCO [9]): 80%
Pre-emergence action against SETVI in % (SETVI [10]; dosage 80 g/ha): 100%
Post-emergence action at 20 g/ha against AMARE in % (AMARE [11]): 90%
Post-emergence action against VERPE in % (VERPE [12]): 80%
Post-emergence action against MATIN in % (MATIN [13]; dosage 5 g/ha): 80%
Post-emergence action against MATIN in % (MATIN [13]; dosage 20 g/ha): 80%
Post-emergence action against DIGSA in % (DIGSA [15]; 5 g/ha): 90%
Post-emergence action against DIGSA (DIGSA [15]; 20 g/ha): 90%
Post-emergence action against PHBPU in % (PHBPU): 90%
Pre-emergence action against ECHCG in % (ECHCG [16]; 20 g/ha): 80%
Pre-emergence action against ECHCG in % (ECHCG [16]; 80 g/ha): 100%
Post-emergence action against ABUTH in % (ABUTH [17]; dosage 5 g/ha): 80%
Post-emergence action against ABUTH in % (ABUTH [17]; dosage 20 g/ha): 90%
Pre-emergence action against VIOTR in % (VIOTR [18]; dosage 20 g/ha): 80%
Pre-emergence action against VIOTR in % (VIOTR [18]; dosage 80 g/ha): 100%
Post-emergence action against HORMU in % (HORMU [28]): 80%
Post-emergence action against ALOMY in % (ALOMY [19]): 80%
Post-emergence action against VIOTR in % (VIOTR [20]; 5 g/ha): 90%
Post-emergence action against VIOTR in % (VIOTR [20]; 20 g/ha): 90%
Pre-emergence action against DIGSA in % (DIGSA [21]; dosage 20 g/ha): 100%
Pre-emergence action against DIGSA in % (DIGSA [21]; dosage 80 g/ha): 100%
Post-emergence action against SETVI in % (SETVI [22]; dosage 5 g/ha): 80%
Post-emergence action against SETVI in % (SETVI [22]; dosage 20 g/ha): 90%
Pre-emergence action against VERPE in % (VERPE [23]): 100%
Pre-emergence action against ALOMY (herbicidal activity) (ALOMY [24]): 80%
Post-emergence action against LOLRI in % (LOLRI [25]): 80%
Pre-emergence action against AMARE in % (AMARE [26]; 20 g/ha, scored visually after 3 weeks vs untreated controls, 100% = plants have died, 0% = like control plants): 80%
Pre-emergence action against AMARE in % (AMARE [26]; [31]): 100%
